Experimental data taken from ChEMBL document CHEMBL3751815, “Sulfonamides incorporating heteropolycyclic scaffolds show potent inhibitory action against carbonic anhydrase isoforms I, II, IX and XII” (Bioorg Med Chem, 2016).

Target: Carbonic anhydrase 9 (Homo sapiens, UniProt Q16790)
Assay: Inhibition of recombinant human carbonic anhydrase 9 preincubated for 15 mins by stopped-flow CO2 hydration assay

Ki [nM]	SMILES
7.4	COc1ccc2c(c1)SCc1cn(-c3ccc(S(N)(=O)=O)cc3)nc1-2
54.1	COc1ccc2c(c1)SCc1ccc(NCC(=O)O)cc1-2
6.1	NS(=O)(=O)c1ccc(-n2cc3c(n2)-c2ccc(Cl)cc2SC3)cc1
67.8	CN(CC(=O)O)c1ccc2c(c1)-c1cccnc1SC2
7	NS(=O)(=O)c1ccc(Nc2ncc3c(n2)-c2ccccc2SC3)cc1
27.6	NS(=O)(=O)c1ccc(Nc2ncc3c(n2)-c2cccnc2SC3)cc1
6.3	NS(=O)(=O)c1ccc(-n2cc3c(n2)-c2ccccc2NC3)cc1
8.7	NS(=O)(=O)c1ccc(Nc2ncc3c(n2)-c2ccc(Cl)cc2SC3)cc1
22.5	COc1ccc2c(c1)SCc1cnc(Nc3ccc(S(N)(=O)=O)cc3)nc1-2
40.8	COc1ccc2c(c1)SCc1ccc(N(C)CC(=O)O)cc1-2

SMILES	Ki [nM]
Cc1ccc2c(c1)NCc1cn(-c3ccc(S(N)(=O)=O)cc3)nc1-2	7.7
Cc1ccc2c(n1)SCc1ccc(N(C)CC(=O)O)cc1-2	92.7
